Source: ChEMBL document CHEMBL3046429, “Synthesis, molecular modeling study, preliminary antibacterial, and antitumor evaluation of N-substituted naphthalimides and their structural analogues” (2013)
≈ marks a conversion by molar mass, not a printed value.

Tests used:
Format in all cases: functional
HOP-92 = experiment: Growth inhibition of Homo sapiens (human) HOP92 cells at 10 uM after 48 hr by coulter counter analysis; settings: HOP-92, 48 h, read-out: GI
Staphylococcus aureus = experiment: Antibacterial activity against Staphylococcus aureus assessed as growth inhibition after 24 hr by two fold serial dilution method; settings: for MIC: Staphylococcus aureus, 24 h
Pseudomonas aeruginosa = experiment: Antibacterial activity against Pseudomonas aeruginosa assessed as growth inhibition after 24 hr by two-fold serial dilution method
Escherichia coli = experiment: Antibacterial activity against Escherichia coli assessed as growth inhibition after 24 hr by two-fold serial dilution method; settings: for MIC: Escherichia coli, 24 h
Bacillus subtilis = experiment: Antibacterial activity against Bacillus subtilis assessed as growth inhibition after 24 hr by two fold serial dilution method
MCF7 = experiment: Growth inhibition of Homo sapiens (human) MCF7 cells at 10 uM after 48 hr by coulter counter analysis; settings: MCF7, 48 h, read-out: GI
UO-31 = experiment: Growth inhibition of Homo sapiens (human) UO31 cells at 10 uM after 48 hr by coulter counter analysis; settings: UO-31, 48 h, read-out: GI
NCI-H522 = experiment: Growth inhibition of Homo sapiens (human) NCI-H522 cells at 10 uM after 48 hr by coulter counter analysis; settings: NCI-H522, 48 h, read-out: GI
SNB-75 = experiment: Growth inhibition of Homo sapiens (human) SNB75 cells at 10 uM after 48 hr by coulter counter analysis; settings: SNB-75, 48 h, read-out: GI
SN12C = experiment: Growth inhibition of Homo sapiens (human) SN12C cells at 10 uM after 48 hr by coulter counter analysis; settings: read-out: GI

Row | MIC (Staphylococcus aureus) | MIC (Pseudomonas aeruginosa) | MIC (Escherichia coli) | MIC (Bacillus subtilis) | SMILES | inhibition of growth at 10 µM (HOP-92) | -logMIC (Staphylococcus aureus) | -logMIC (Escherichia coli) | inhibition of growth at 10 µM (MCF7) | inhibition of growth at 10 µM (UO-31) | inhibition of growth at 10 µM (NCI-H522) | inhibition of growth at 10 µM (SNB-75) | inhibition of growth at 10 µM (SN12C)
1 | 2.2 µg/mL (≈ 6.41 µM) | > 100 µg/mL | 4.2 µg/mL (≈ 12.2 µM) | 2 µg/mL (≈ 5.83 µM) | O=C(O)c1ccc(-n2c(=O)c3ccccc3c3ccccc3c2=O)cc1 | 10.1% | 5.19 | 4.91 | 10.1% | 15.4% | 7.66% | 11% | 6.3%
2 | 1.6 µg/mL (≈ 5.04 µM) | > 100 µg/mL | 3.9 µg/mL (≈ 12.3 µM) | 2 µg/mL (≈ 6.3 µM) | O=C(O)c1ccc(N2C(=O)c3cccc4cccc(c34)C2=O)cc1 |  | 5.3 | 4.91 |  |  |  |  | 
3 | 8.7 µg/mL (≈ 27.6 µM) | > 100 µg/mL | 9 µg/mL (≈ 28.5 µM) | 9 µg/mL (≈ 28.5 µM) | COc1cc(N2C(=O)c3nccnc3C2=O)cc(OC)c1OC | 10.2% | 4.56 | 4.54 | 4.31% | 12.5% | 4.82% | -2.75% | 5.86%
4 | 2 µg/mL (≈ 5.5 µM) | > 100 µg/mL | 2.5 µg/mL (≈ 6.88 µM) | 2.2 µg/mL (≈ 6.05 µM) | COc1cc(N2C(=O)c3cccc4cccc(c34)C2=O)cc(OC)c1OC |  | 5.26 | 5.16 |  |  |  |  | 
5 | 2.5 µg/mL (≈ 6.42 µM) | > 100 µg/mL | 2.5 µg/mL (≈ 6.42 µM) | 2.5 µg/mL (≈ 6.42 µM) | COc1cc(-n2c(=O)c3ccccc3c3ccccc3c2=O)cc(OC)c1OC |  | 5.19 | 5.19 |  |  |  |  | 
6 | > 100 µg/mL | > 100 µg/mL | > 100 µg/mL | > 100 µg/mL | O=c1c2ccccc2c2ccccc2c(=O)n1CCc1ccccn1 | 13.5% | 3.53 | 3.53 | 28.3% | 32.5% | 11.4% | 13.1% | 8.53%
7 | > 100 µg/mL | > 100 µg/mL | > 100 µg/mL | > 100 µg/mL | O=c1c2ccccc2c2ccccc2c(=O)n1CCN1CCOCC1 |  | 3.52 | 3.52 |  |  |  |  | 
8 | 2.2 µg/mL (≈ 5.65 µM) | > 100 µg/mL | 4 µg/mL (≈ 10.3 µM) | 2.3 µg/mL (≈ 5.91 µM) | O=c1c2ccccc2c2ccccc2c(=O)n1-c1ccc([N+](=O)[O-])cc1[N+](=O)[O-] | 26.4% | 5.25 | 4.99 | -0.39% | 18.1% | 5.5% | 28.6% | 1.4%
9 | 2.5 µg/mL (≈ 6.42 µM) | > 100 µg/mL | 2.5 µg/mL (≈ 6.42 µM) | 2.5 µg/mL (≈ 6.42 µM) | COc1cc(OC)c(-n2c(=O)c3ccccc3c3ccccc3c2=O)c(OC)c1 |  | 5.19 | 5.19 |  |  |  |  | 
10 | 19.5 µg/mL (≈ 51 µM) | 10 µg/mL (≈ 26.2 µM) | 2.6 µg/mL (≈ 6.8 µM) | 19.2 µg/mL (≈ 50.2 µM) | Cc1cc(Cl)c(-n2c(=O)c3ccccc3c3ccccc3c2=O)c(Cl)c1 | 1.58% | 4.29 | 5.17 | 1.96% | 34.7% | 1.31% | 10.1% | 14.8%
11 | 19 µg/mL (≈ 47.2 µM) | 10 µg/mL (≈ 24.8 µM) | 2.4 µg/mL (≈ 5.96 µM) | 18.5 µg/mL (≈ 45.9 µM) | O=c1c2ccccc2c2ccccc2c(=O)n1-c1c(Cl)cc(Cl)cc1Cl | 33.6% | 4.33 | 5.22 | -1.42% | 10.8% | 4.08% | 45.6% | -1.37%
12 | 8.9 µg/mL (≈ 32.9 µM) | > 100 µg/mL | 10.5 µg/mL (≈ 38.9 µM) | 8.5 µg/mL (≈ 31.5 µM) | O=C1c2nccnc2C(=O)N1c1ccc([N+](=O)[O-])cc1 |  | 4.48 | 4.41 |  |  |  |  | 
13 | 8.4 µg/mL (≈ 26.6 µM) | > 100 µg/mL | 10.9 µg/mL (≈ 34.6 µM) | 8 µg/mL (≈ 25.4 µM) | O=C1c2nccnc2C(=O)N1c1ccc([N+](=O)[O-])cc1[N+](=O)[O-] | -28.1% | 4.57 | 4.46 | 3.56% | 15.3% | 3.89% | 11.4% | 6.83%
14 | 8.7 µg/mL (≈ 27.6 µM) | > 100 µg/mL | 9 µg/mL (≈ 28.5 µM) | 9 µg/mL (≈ 28.5 µM) | COc1cc(OC)c(N2C(=O)c3nccnc3C2=O)c(OC)c1 |  | 4.56 | 4.54 |  |  |  |  | 
15 | 20 µg/mL (≈ 64.9 µM) | 20 µg/mL (≈ 64.9 µM) | 6.9 µg/mL (≈ 22.4 µM) | 20 µg/mL (≈ 64.9 µM) | Cc1cc(Cl)c(N2C(=O)c3nccnc3C2=O)c(Cl)c1 |  | 4.19 | 4.65 |  |  |  |  | 
16 | > 100 µg/mL | > 100 µg/mL | > 100 µg/mL | > 100 µg/mL | O=C1c2cccc3cccc(c23)C(=O)N1CCN1CCOCC1 |  | 3.49 | 3.49 |  |  |  |  | 
17 | > 100 µg/mL | > 100 µg/mL | > 100 µg/mL | > 100 µg/mL | O=C1c2cccc3cccc(c23)C(=O)N1CCc1ccccn1 |  | 3.48 | 3.48 |  |  |  |  | 
18 | 2.9 µg/mL (≈ 9.11 µM) | > 100 µg/mL | 4 µg/mL (≈ 12.6 µM) | 2.9 µg/mL (≈ 9.11 µM) | O=C1c2cccc3cccc(c23)C(=O)N1c1ccc([N+](=O)[O-])cc1 |  | 5.04 | 4.9 |  |  |  |  | 
19 | 1.8 µg/mL (≈ 4.95 µM) | > 100 µg/mL | 4 µg/mL (≈ 11 µM) | 2.2 µg/mL (≈ 6.06 µM) | O=C1c2cccc3cccc(c23)C(=O)N1c1ccc([N+](=O)[O-])cc1[N+](=O)[O-] |  | 5.31 | 4.96 |  |  |  |  | 
20 | 2 µg/mL (≈ 5.5 µM) | > 100 µg/mL | 2.5 µg/mL (≈ 6.88 µM) | 2.2 µg/mL (≈ 6.05 µM) | COc1cc(OC)c(N2C(=O)c3cccc4cccc(c34)C2=O)c(OC)c1 | 30.2% | 5.26 | 5.16 | 6.42% | 21% | 13.6% | 13.2% | 19.3%
21 | 18.2 µg/mL (≈ 51.1 µM) | 10 µg/mL (≈ 28.1 µM) | 2.2 µg/mL (≈ 6.18 µM) | 20 µg/mL (≈ 56.1 µM) | Cc1cc(Cl)c(N2C(=O)c3cccc4cccc(c34)C2=O)c(Cl)c1 | -15.5% | 4.29 | 5.21 | -1.03% | 26.8% | 5.32% | 6.64% | 3.72%
22 | 18 µg/mL (≈ 47.8 µM) | 10 µg/mL (≈ 26.6 µM) | 2 µg/mL (≈ 5.31 µM) | 20 µg/mL (≈ 53.1 µM) | O=C1c2cccc3cccc(c23)C(=O)N1c1c(Cl)cc(Cl)cc1Cl |  | 4.32 | 5.27 | 3.55% | 20.9% | 4.37% | 39.1% | 6.09%
23 | > 100 µg/mL | > 100 µg/mL | > 100 µg/mL | > 100 µg/mL | O=C1c2nccnc2C(=O)N1CCc1ccccn1 | -3.5% | 3.41 | 3.41 | 2.87% | 20.9% | 3.84% | 11.8% | 
24 | > 100 µg/mL | > 100 µg/mL | > 100 µg/mL | > 100 µg/mL | O=C1c2nccnc2C(=O)N1CCN1CCOCC1 |  | 3.42 | 3.42 |  |  |  |  | 
25 | 8.5 µg/mL (≈ 31.6 µM) | > 100 µg/mL | 10.9 µg/mL (≈ 40.5 µM) | 8 µg/mL (≈ 29.7 µM) | O=C(O)c1ccc(N2C(=O)c3nccnc3C2=O)cc1 |  | 4.5 | 4.39 |  |  |  |  | 

Row | SMILES | MIC (Staphylococcus aureus) | MIC (Pseudomonas aeruginosa) | MIC (Escherichia coli) | MIC (Bacillus subtilis) | inhibition of growth at 10 µM (HOP-92) | -logMIC (Staphylococcus aureus) | -logMIC (Escherichia coli) | inhibition of growth at 10 µM (MCF7) | inhibition of growth at 10 µM (UO-31) | inhibition of growth at 10 µM (NCI-H522) | inhibition of growth at 10 µM (SNB-75) | inhibition of growth at 10 µM (SN12C)
26 | CC1(C)S[C@@H]2[C@H](NC(=O)[C@H](N)c3ccccc3)C(=O)N2[C@H]1C(=O)O [AMPICILLIN] | 2.2 µg/mL (≈ 6.3 µM) | 10 µg/mL (≈ 28.6 µM) | 2.2 µg/mL (≈ 6.3 µM) | 2.2 µg/mL (≈ 6.3 µM) |  |  |  |  |  |  |  | 
